The term inhibition denotes the share of the control response that was lost under treatment. A word on the MIC: it is the lowest concentration found to suppress growth.

The values below come from ChEMBL document CHEMBL2406981, “Novel pyrazoline amidoxime and their 1,2,4-oxadiazole analogues: synthesis and pharmacological screening” (Bioorg Med Chem Lett, 2013).

Common to all, as to assay type: functional
Assay [1] in a line: Antiinflammatory activity against heat-induced albumin denaturation at […] preincubated for 15 mins before heat induction by UV-vis spectrophotometer analysis.
Assay [2] deals with Aspergillus flavus. In words: Antimicrobial activity against Aspergillus flavus MTCC 873.
Assay [3] concerns Aspergillus niger. In words: Antimicrobial activity against Aspergillus niger MTCC 281.
In assay [4] the test system is Shigella flexneri. Briefly: Antimicrobial activity against Shigella flexneri MTCC 1457.
Assay [5] deals with Escherichia coli. Briefly: Antimicrobial activity against Escherichia coli MTCC 724.
The subject of assay [6] is Klebsiella pneumoniae. In words: Antimicrobial activity against Klebsiella pneumoniae MTCC 3384.
For assay [7], the system named is Staphylococcus aureus. Briefly: Antimicrobial activity against Staphylococcus aureus MTCC 96.
Assay [8] deals with Bacillus cereus. In words: Antimicrobial activity against Bacillus cereus MTCC 8372.
The subject of assay [9] is Aspergillus niger. Briefly: Antimicrobial activity against Aspergillus niger MTCC 281 at 50 ug/ml after 24 hrs by agar disc diffusion method. The settings on record: MTCC 281, 24 h, read-out: DIZ. Background: Agar diffusion results depend on both activity and mobility in agar.
Assay [10] has as its system Aspergillus niger. Briefly: Antimicrobial activity against Aspergillus niger MTCC 281 at 100 ug/ml after 24 hrs by agar disc diffusion method. The settings on record: MTCC 281, 24 h, read-out: DIZ.
In assay [11] the test system is Aspergillus flavus. Briefly: Antimicrobial activity against Aspergillus flavus MTCC 873 at 100 ug/ml after 24 hrs by agar disc diffusion method. The settings on record: MTCC 873, 24 h, read-out: DIZ.
Assay [12] has as its system Aspergillus flavus. Briefly: Antimicrobial activity against Aspergillus flavus MTCC 873 at 50 ug/ml after 24 hrs by agar disc diffusion method. The settings on record: MTCC 873, 24 h, read-out: DIZ.
Assay [13] deals with Shigella flexneri. In words: Antimicrobial activity against Shigella flexneri MTCC 1457 at 100 ug/ml after 24 hrs by agar disc diffusion method. The settings on record: MTCC 1457, 24 h, read-out: DIZ.
Assay [14] concerns Shigella flexneri. In words: Antimicrobial activity against Shigella flexneri MTCC 1457 at 50 ug/ml after 24 hrs by agar disc diffusion method. The settings on record: MTCC 1457, 24 h, read-out: DIZ.
The subject of assay [15] is Klebsiella pneumoniae. In words: Antimicrobial activity against Klebsiella pneumoniae MTCC 3384 at 100 ug/ml after 24 hrs by agar disc diffusion method. The settings on record: MTCC 3384, 24 h, read-out: DIZ.
For assay [16], the system named is Klebsiella pneumoniae. Briefly: Antimicrobial activity against Klebsiella pneumoniae MTCC 3384 at 50 ug/ml after 24 hrs by agar disc diffusion method. The settings on record: MTCC 3384, 24 h, read-out: DIZ.
Assay [17] concerns Escherichia coli. Briefly: Antimicrobial activity against Escherichia coli MTCC 724 at 100 ug/ml after 24 hrs by agar disc diffusion method. The settings on record: MTCC 724, 24 h, read-out: DIZ.
Assay [18] deals with Escherichia coli. In words: Antimicrobial activity against Escherichia coli MTCC 724 at 50 ug/ml after 24 hrs by agar disc diffusion method. The settings on record: MTCC 724, 24 h, read-out: DIZ.
Assay [19] relates to Staphylococcus aureus. Briefly: Antimicrobial activity against Staphylococcus aureus MTCC 96 at 100 ug/ml after 24 hrs by agar disc diffusion method. The settings on record: MTCC 96, 24 h, read-out: DIZ.
Assay [20] has as its system Staphylococcus aureus. In words: Antimicrobial activity against Staphylococcus aureus MTCC 96 at 50 ug/ml after 24 hrs by agar disc diffusion method. The settings on record: MTCC 96, 24 h, read-out: DIZ.
For assay [21], the system named is Bacillus cereus. In words: Antimicrobial activity against Bacillus cereus MTCC 8372 at 100 ug/ml after 24 hrs by agar disc diffusion method. The settings on record: MTCC 8372, 24 h, read-out: DIZ.
In assay [22] the test system is Bacillus cereus. Briefly: Antimicrobial activity against Bacillus cereus MTCC 8372 at 50 ug/ml after 24 hrs by agar disc diffusion method. The settings on record: MTCC 8372, 24 h, read-out: DIZ.
Assay [23] can be described thus: Antioxidant activity against ferric chloride-induced lipid peroxidation using egg lecithin at 50 ug/ml after 1 hr.
Assay [24] can be described thus: Antioxidant activity against ferric chloride-induced lipid peroxidation using egg lecithin at 100 ug/ml after 1 hr.
The nature of assay [25]: Antioxidant activity against ferric chloride-induced lipid peroxidation using egg lecithin at 10 ug/ml after 1 hr.
Assay [26] in a line: Antioxidant activity assessed as reducing power of ferric ion at 50 ug/ml after 20 mins. Set-up: scale not given: the % may be the effect or the level left.
The nature of assay [27]: Antioxidant activity assessed as reducing power of ferric ion at 100 ug/ml after 20 mins. Also on record: scale not given: the % may be the effect or the level left.
A short description of assay [28]: Antioxidant activity assessed as reducing power of ferric ion at 10 ug/ml after 20 mins. Set-up: scale not given: the % may be the effect or the level left.
For assay [29], the system named is Radical scavenging activity. In words: Antioxidant activity assessed as DPPH free radical scavenging activity at 50 ug/ml after 20 mins. (The DPPH test is a chemical assay of radical scavenging.)
For assay [30], the system named is Radical scavenging activity. Briefly: Antioxidant activity assessed as DPPH free radical scavenging activity at 100 ug/ml after 20 mins.
Assay [31] relates to Radical scavenging activity. In words: Antioxidant activity assessed as DPPH free radical scavenging activity at 10 ug/ml after 20 mins.

Values after ≈ are worked out from the molar mass of the structure shown.

As for `COc1ccc(C2=NN(c3ccccc3)C(c3noc(-c4ccccc4OC)n3)C2)cc1` (configuration not stated), the inhibition in assay [1] was 27.1%; in [23] it was 33%; in [24], 57%; in [25] it was 21%. Besides, the MIC in [2] is 15 µg/mL (≈ 35.2 µM); in assay [3] it was 10 µg/mL (≈ 23.4 µM); in [4] it was 25 µg/mL (≈ 58.6 µM); in assay [5], 25 µg/mL (≈ 58.6 µM); in assay [6] it was 25 µg/mL (≈ 58.6 µM); in assay [7], 35 µg/mL (≈ 82.1 µM). The same compound yielded an MIC in assay [8] of 35 µg/mL (≈ 82.1 µM). Besides, the zone of inhibition at 50 µg/mL amounted to 12 mm in assay [9]; 10 mm in [12]; 6 mm in assay [14]; 7 mm in [16]; 6 mm in assay [18]; 4 mm in assay [20]. In addition, in assay [22], the zone of inhibition at 50 µg/mL was found to be 4 mm. Moreover, the zone of inhibition at 100 µg/mL stood at 22 mm in [10]; 12 mm in [11]; 10 mm in [13]; 8 mm in assay [15]; 8 mm in assay [17]; 8 mm in assay [19]. In addition, the zone of inhibition at 100 µg/mL in assay [21] worked out at 8 mm. Further, the Activity was determined as 24% in [26]; 65% in assay [27]; 11% in [28]; 41% in assay [29]; 53% in assay [30]; 20% in assay [31].
Regarding `COc1ccc(-c2nc(C3CC(c4ccc(Cl)cc4)=NN3c3ccccc3)no2)cc1OC` (configuration not stated), the inhibition was 53.5% in assay [1], 52% in assay [23], 73% in assay [24] and 30% in assay [25]. In addition, the MIC stood at 10 µg/mL (≈ 21.7 µM) in assay [2]; 10 µg/mL (≈ 21.7 µM) in assay [3]; 15 µg/mL (≈ 32.5 µM) in assay [4]; 20 µg/mL (≈ 43.4 µM) in assay [5]; 15 µg/mL (≈ 32.5 µM) in assay [6]; 25 µg/mL (≈ 54.2 µM) in [7]. In addition, the MIC in assay [8] is 20 µg/mL (≈ 43.4 µM). Further, the zone of inhibition at 50 µg/mL amounted to 14 mm in assay [9]; 14 mm in assay [12]; 10 mm in assay [14]; 9 mm in assay [16]; 8 mm in [18]; 6 mm in [20]. The zone of inhibition at 50 µg/mL in assay [22] came to 8 mm. The zone of inhibition at 100 µg/mL in assay [10] worked out at 27 mm; in assay [11] it was 21 mm; in [13] it was 16 mm; in assay [15], 11 mm; in assay [17] it was 12 mm; in assay [19], 12 mm. Further, the zone of inhibition at 100 µg/mL in assay [21] was determined as 14 mm. Also, the Activity is 29% in [26]; 75% in [27]; 14% in assay [28]; 59% in assay [29]; 86% in assay [30]; 30% in [31].
Consider `COc1ccccc1-c1nc(C2CC(c3ccc(Cl)cc3)=NN2c2ccccc2)no1` (configuration not stated), for which the inhibition in assay [1] is 56.8%; in [23], 38%; in assay [24], 67%; in assay [25] it was 21%. Also, the MIC came to 15 µg/mL (≈ 34.8 µM) in assay [2]; 15 µg/mL (≈ 34.8 µM) in assay [3]; 25 µg/mL (≈ 58 µM) in assay [4]; 35 µg/mL (≈ 81.2 µM) in [5]; 25 µg/mL (≈ 58 µM) in assay [6]; 30 µg/mL (≈ 69.6 µM) in [7]. This compound also registered an MIC in [8] of 35 µg/mL (≈ 81.2 µM). Besides, the zone of inhibition at 50 µg/mL in assay [9] was 10 mm; in [12], 9 mm; in assay [14], 6 mm; in assay [16], 6 mm; in [18], 4 mm; in assay [20], 5 mm. For the same compound, the zone of inhibition at 50 µg/mL in assay [22] turned out to be 4 mm. For the same compound, the zone of inhibition at 100 µg/mL was 20 mm in [10]; 10 mm in [11]; 8 mm in assay [13]; 8 mm in [15]; 8 mm in [17]; 10 mm in [19]. For the same compound, in assay [21], the zone of inhibition at 100 µg/mL was found to be 8 mm. For the same compound, the Activity in assay [26] was found to be 23%; in assay [27], 68%; in assay [28], 12%; in [29], 30%; in assay [30] it was 64%; in [31], 24%.
With `COc1ccc(C2=NN(c3ccccc3)C(c3noc(-c4ccccc4)n3)C2)cc1` (configuration not stated), the inhibition is 23.3% in assay [1], 40% in [23], 62% in [24] and 26% in [25]. The MIC in [2] worked out at 25 µg/mL (≈ 63.1 µM); in assay [3], 10 µg/mL (≈ 25.2 µM); in assay [4] it was 25 µg/mL (≈ 63.1 µM); in assay [5], 25 µg/mL (≈ 63.1 µM); in assay [6] it was 25 µg/mL (≈ 63.1 µM); in assay [7], 55 µg/mL (≈ 139 µM). Also, inhibition of growth in assay [8] (MIC) required 45 µg/mL (≈ 114 µM). Further, the zone of inhibition at 50 µg/mL in assay [9] stood at 10 mm; in assay [12], 7 mm; in assay [14] it was 7 mm; in assay [16] it was 6 mm; in assay [18], 6 mm; in assay [20] it was 2 mm. Also, in assay [22], the zone of inhibition at 50 µg/mL turned out to be 3 mm. Also, the zone of inhibition at 100 µg/mL in [10] was found to be 18 mm; in assay [11], 10 mm; in [13], 8 mm; in [15], 8 mm; in assay [17] it was 8 mm; in assay [19], 12 mm. The zone of inhibition at 100 µg/mL in assay [21] was 12 mm. Also, the Activity came to 20% in [26]; 64% in assay [27]; 11% in assay [28]; 36% in assay [29]; 51% in [30]; 19% in assay [31].
Turning to `O=C1O[C@H]([C@@H](O)CO)C(O)=C1O`, the Activity in assay [26] amounted to 32%; in assay [27], 82%; in [28], 14%; in assay [29], 57%; in assay [30], 94%; in [31] it was 32%.
Turning to `OC(Cn1cncn1)(Cn1cncn1)c1ccc(F)cc1F` [FLUCONAZOLE], the MIC in assay [2] and in assay [3] was 5 µg/mL (≈ 16.3 µM) each time. Besides, the zone of inhibition at 50 µg/mL in [9] was found to be 20 mm; in assay [12] it was 16 mm. The zone of inhibition at 100 µg/mL in assay [10] was found to be 30 mm; in [11] it was 28 mm.
`O=C(N[C@H](CO)[C@H](O)c1ccc([N+](=O)[O-])cc1)C(Cl)Cl` [CHLORAMPHENICOL]: the MIC in [4], in [5], in assay [6], in [7] and in assay [8] was 10 µg/mL (≈ 30.9 µM) in each case. Moreover, the zone of inhibition at 100 µg/mL in [13] was found to be 24 mm; in [15], 20 mm; in [17], 18 mm; in assay [19], 16 mm; in assay [21] it was 18 mm. Besides, the zone of inhibition at 50 µg/mL in assay [14] worked out at 10 mm; in assay [16] it was 12 mm; in [18] it was 10 mm; in [20], 9 mm; in assay [22], 10 mm.
The compound `O=C(O)Cc1ccccc1Nc1c(Cl)cccc1Cl` returned an inhibition in assay [1] of 84.4%.
